Legend:
Test in all cases: Test E pre-/postemergence plant response
Assay type in all cases: in vivo
[1] = system: large crabgrass (Digitaria sanguinalis); conditions: scale 0 to 100
How it was run: (§1)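 Plants scored visually versus controls on a 0–100 scale (100 = complete control) 14 to 21 days after treatment in the greenhouse. Test chemicals in a surfactant-containing non-phytotoxic solvent were applied to soil preemergence or to 1- to 4-leaf plants, 2–18 cm tall.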

[2] = system: broadleaf signalgrass (Brachiaria platyphylla); conditions: scale 0 to 100
How it was run: as §1

[3] = system: johnsongrass (Sorghum halepense); conditions: scale 0 to 100
How it was run: as §1

[4] = system: dallisgrass (Paspalum dilatatum); conditions: scale 0 to 100
How it was run: as §1

[5] = system: quackgrass (Elytrigia repens); conditions: scale 0 to 100
How it was run: as §1

[6] = system: pitted morningglory (Ipomoea lacunosa); conditions: scale 0 to 100
How it was run: as §1

[7] = system: surinam grass (Brachiaria decumbens); conditions: scale 0 to 100
How it was run: as §1

[8] = system: barnyardgrass (Echinochloa crus-galli); conditions: scale 0 to 100
How it was run: as §1

[9] = system: green foxtail (Setaria viridis); conditions: scale 0 to 100
How it was run: as §1

[10] = system: Italian ryegrass (Lolium multiflorum); conditions: scale 0 to 100
How it was run: as §1

[11] = system: guineagrass (Panicum maximum); conditions: scale 0 to 100
How it was run: as §1

[12] = system: common mallow (Malva sylvestris); conditions: Postemergence, scale 0 to 100
How it was run: as §1

CCc1cc(-c2ccc(Cl)cc2)nn1-c1c(O)cnn(C)c1=O [Compound 21]
Plant response rating, Crabgrass, Large ([1]; 8 g ai/ha, Preemergence): 65 | Plant response rating, Crabgrass, Large ([1]; 16 g ai/ha, Preemergence): 100 | Plant response rating, Crabgrass, Large ([1]; 31 g ai/ha, Preemergence): 100 | Plant response rating, Crabgrass, Large ([1]; 62 g ai/ha, Preemergence): 100 | Plant response rating, Crabgrass, Large ([1]; Postemergence, 8 g ai/ha): 80 | Plant response rating, Crabgrass, Large ([1]; Postemergence, 16 g ai/ha): 90 | Plant response rating, Crabgrass, Large ([1]; Postemergence, 31 g ai/ha): 95 | Plant response rating, Crabgrass, Large ([1]; Postemergence, 62 g ai/ha): 98 | Plant response rating, Signalgrass ([2]; 16 g ai/ha, Preemergence): 98 | Plant response rating, Signalgrass ([2]; 31 g ai/ha, Preemergence): 100 | Plant response rating, Signalgrass ([2]; 62 g ai/ha, Preemergence): 100 | Plant response rating, Signalgrass ([2]; Postemergence, 8 g ai/ha): 80 | Plant response rating, Signalgrass ([2]; Postemergence, 16 g ai/ha): 90 | Plant response rating, Signalgrass ([2]; Postemergence, 31 g ai/ha): 100 | Plant response rating, Signalgrass ([2]; Postemergence, 62 g ai/ha): 100 | Plant response rating, Johnsongrass ([3]; 16 g ai/ha, Preemergence): 75 | Plant response rating, Johnsongrass ([3]; 31 g ai/ha, Preemergence): 90 | Plant response rating, Johnsongrass ([3]; 62 g ai/ha, Preemergence): 95 | Plant response rating, Johnsongrass ([3]; Postemergence, 8 g ai/ha): 50 | Plant response rating, Johnsongrass ([3]; Postemergence, 16 g ai/ha): 65 | Plant response rating, Johnsongrass ([3]; Postemergence, 31 g ai/ha): 85 | Plant response rating, Johnsongrass ([3]; Postemergence, 62 g ai/ha): 100 | Plant response rating, Dallisgrass ([4]; 8 g ai/ha, Preemergence): 80 | Plant response rating, Dallisgrass ([4]; 16 g ai/ha, Preemergence): 100 | Plant response rating, Dallisgrass ([4]; 31 g ai/ha, Preemergence): 100 | Plant response rating, Dallisgrass ([4]; 62 g ai/ha, Preemergence): 100 | Plant response rating, Dallisgrass ([4]; Postemergence, 8 g ai/ha): 75 | Plant response rating, Dallisgrass ([4]; Postemergence, 16 g ai/ha): 80 | Plant response rating, Dallisgrass ([4]; Postemergence, 31 g ai/ha): 85 | Plant response rating, Dallisgrass ([4]; Postemergence, 62 g ai/ha): 98 | Plant response rating, Quackgrass ([5]; 16 g ai/ha, Preemergence): 50 | Plant response rating, Quackgrass ([5]; 31 g ai/ha, Preemergence): 90 | Plant response rating, Quackgrass ([5]; 62 g ai/ha, Preemergence): 95 | Plant response rating, Quackgrass ([5]; Postemergence, 8 g ai/ha): 20 | Plant response rating, Quackgrass ([5]; Postemergence, 16 g ai/ha): 35 | Plant response rating, Quackgrass ([5]; Postemergence, 31 g ai/ha): 40 | Plant response rating, Quackgrass ([5]; Postemergence, 62 g ai/ha): 80 | Plant response rating, Morningglory ([6]; 16 g ai/ha, Preemergence): 0 | Plant response rating, Morningglory ([6]; 31 g ai/ha, Preemergence): 0 | Plant response rating, Morningglory ([6]; 62 g ai/ha, Preemergence): 0 | Plant response rating, Morningglory ([6]; Postemergence, 8 g ai/ha): 0 | Plant response rating, Morningglory ([6]; Postemergence, 16 g ai/ha): 0 | Plant response rating, Morningglory ([6]; Postemergence, 31 g ai/ha): 0 | Plant response rating, Morningglory ([6]; Postemergence, 62 g ai/ha): 0 | Plant response rating, Surinam Grass ([7]; 16 g ai/ha, Preemergence): 100 | Plant response rating, Surinam Grass ([7]; 31 g ai/ha, Preemergence): 100 | Plant response rating, Surinam Grass ([7]; 62 g ai/ha, Preemergence): 100 | Plant response rating, Surinam Grass ([7]; Postemergence, 8 g ai/ha): 95 | Plant response rating, Surinam Grass ([7]; Postemergence, 16 g ai/ha): 95 | Plant response rating, Surinam Grass ([7]; Postemergence, 31 g ai/ha): 100 | Plant response rating, Surinam Grass ([7]; Postemergence, 62 g ai/ha): 100 | Plant response rating, Barnyardgrass ([8]; 8 g ai/ha, Preemergence): 95 | Plant response rating, Barnyardgrass ([8]; 16 g ai/ha, Preemergence): 100 | Plant response rating, Barnyardgrass ([8]; 31 g ai/ha, Preemergence): 100 | Plant response rating, Barnyardgrass ([8]; 62 g ai/ha, Preemergence): 100 | Plant response rating, Barnyardgrass ([8]; Postemergence, 8 g ai/ha): 100 | Plant response rating, Barnyardgrass ([8]; Postemergence, 16 g ai/ha): 100 | Plant response rating, Barnyardgrass ([8]; Postemergence, 31 g ai/ha): 100 | Plant response rating, Barnyardgrass ([8]; Postemergence, 62 g ai/ha): 100 | Plant response rating, Foxtail, Green ([9]; 8 g ai/ha, Preemergence): 75 | Plant response rating, Foxtail, Green ([9]; 16 g ai/ha, Preemergence): 100 | Plant response rating, Foxtail, Green ([9]; 31 g ai/ha, Preemergence): 100 | Plant response rating, Foxtail, Green ([9]; 62 g ai/ha, Preemergence): 100 | Plant response rating, Foxtail, Green ([9]; Postemergence, 8 g ai/ha): 65 | Plant response rating, Foxtail, Green ([9]; Postemergence, 16 g ai/ha): 75 | Plant response rating, Foxtail, Green ([9]; Postemergence, 31 g ai/ha): 95 | Plant response rating, Foxtail, Green ([9]; Postemergence, 62 g ai/ha): 100 | Plant response rating, Ryegrass, Italian ([10]; 16 g ai/ha, Preemergence): 100 | Plant response rating, Ryegrass, Italian ([10]; 31 g ai/ha, Preemergence): 100 | Plant response rating, Ryegrass, Italian ([10]; 62 g ai/ha, Preemergence): 100 | Plant response rating, Ryegrass, Italian ([10]; Postemergence, 8 g ai/ha): 80 | Plant response rating, Ryegrass, Italian ([10]; Postemergence, 16 g ai/ha): 98 | Plant response rating, Ryegrass, Italian ([10]; Postemergence, 31 g ai/ha): 100 | Plant response rating, Ryegrass, Italian ([10]; Postemergence, 62 g ai/ha): 100 | Plant response rating, Guineagrass ([11]; 16 g ai/ha, Preemergence): 100 | Plant response rating, Guineagrass ([11]; 31 g ai/ha, Preemergence): 100 | Plant response rating, Guineagrass ([11]; 62 g ai/ha, Preemergence): 100 | Plant response rating, Guineagrass ([11]; Postemergence, 8 g ai/ha): 95 | Plant response rating, Guineagrass ([11]; Postemergence, 16 g ai/ha): 98 | Plant response rating, Guineagrass ([11]; Postemergence, 31 g ai/ha): 100 | Plant response rating, Guineagrass ([11]; Postemergence, 62 g ai/ha): 100 | Plant response rating, Mallow ([12]; 8 g ai/ha): 0 | Plant response rating, Mallow ([12]; 16 g ai/ha): 0 | Plant response rating, Mallow ([12]; 31 g ai/ha): 0 | Plant response rating, Mallow ([12]; 62 g ai/ha): 0

Cc1cc(-c2ccc(Cl)cc2)nn1-c1c(OC(=O)c2cccc(Cl)c2)cnn(C)c1=O [Compound 32]
Plant response rating, Crabgrass, Large ([1]; Postemergence, 8 g ai/ha): 35 | Plant response rating, Crabgrass, Large ([1]; Postemergence, 16 g ai/ha): 75 | Plant response rating, Crabgrass, Large ([1]; Postemergence, 31 g ai/ha): 75 | Plant response rating, Crabgrass, Large ([1]; Postemergence, 62 g ai/ha): 80 | Plant response rating, Signalgrass ([2]; Postemergence, 8 g ai/ha): 80 | Plant response rating, Signalgrass ([2]; Postemergence, 16 g ai/ha): 80 | Plant response rating, Signalgrass ([2]; Postemergence, 31 g ai/ha): 95 | Plant response rating, Signalgrass ([2]; Postemergence, 62 g ai/ha): 100 | Plant response rating, Johnsongrass ([3]; Postemergence, 8 g ai/ha): 50 | Plant response rating, Johnsongrass ([3]; Postemergence, 16 g ai/ha): 80 | Plant response rating, Johnsongrass ([3]; Postemergence, 31 g ai/ha): 98 | Plant response rating, Johnsongrass ([3]; Postemergence, 62 g ai/ha): 100 | Plant response rating, Dallisgrass ([4]; Postemergence, 8 g ai/ha): 0 | Plant response rating, Dallisgrass ([4]; Postemergence, 16 g ai/ha): 20 | Plant response rating, Dallisgrass ([4]; Postemergence, 31 g ai/ha): 30 | Plant response rating, Dallisgrass ([4]; Postemergence, 62 g ai/ha): 40 | Plant response rating, Quackgrass ([5]; Postemergence, 8 g ai/ha): 0 | Plant response rating, Quackgrass ([5]; Postemergence, 16 g ai/ha): 0 | Plant response rating, Quackgrass ([5]; Postemergence, 31 g ai/ha): 0 | Plant response rating, Quackgrass ([5]; Postemergence, 62 g ai/ha): 0 | Plant response rating, Morningglory ([6]; Postemergence, 8 g ai/ha): 0 | Plant response rating, Morningglory ([6]; Postemergence, 16 g ai/ha): 35 | Plant response rating, Morningglory ([6]; Postemergence, 31 g ai/ha): 35 | Plant response rating, Morningglory ([6]; Postemergence, 62 g ai/ha): 50 | Plant response rating, Surinam Grass ([7]; Postemergence, 8 g ai/ha): 80 | Plant response rating, Surinam Grass ([7]; Postemergence, 31 g ai/ha): 100 | Plant response rating, Surinam Grass ([7]; Postemergence, 62 g ai/ha): 100 | Plant response rating, Barnyardgrass ([8]; Postemergence, 8 g ai/ha): 98 | Plant response rating, Barnyardgrass ([8]; Postemergence, 16 g ai/ha): 98 | Plant response rating, Barnyardgrass ([8]; Postemergence, 31 g ai/ha): 100 | Plant response rating, Barnyardgrass ([8]; Postemergence, 62 g ai/ha): 100 | Plant response rating, Foxtail, Green ([9]; Postemergence, 8 g ai/ha): 40 | Plant response rating, Foxtail, Green ([9]; Postemergence, 16 g ai/ha): 60 | Plant response rating, Foxtail, Green ([9]; Postemergence, 31 g ai/ha): 85 | Plant response rating, Foxtail, Green ([9]; Postemergence, 62 g ai/ha): 90 | Plant response rating, Ryegrass, Italian ([10]; Postemergence, 8 g ai/ha): 75 | Plant response rating, Ryegrass, Italian ([10]; Postemergence, 16 g ai/ha): 95 | Plant response rating, Ryegrass, Italian ([10]; Postemergence, 31 g ai/ha): 95 | Plant response rating, Ryegrass, Italian ([10]; Postemergence, 62 g ai/ha): 98 | Plant response rating, Guineagrass ([11]; Postemergence, 8 g ai/ha): 90 | Plant response rating, Guineagrass ([11]; Postemergence, 16 g ai/ha): 98 | Plant response rating, Guineagrass ([11]; Postemergence, 31 g ai/ha): 98 | Plant response rating, Guineagrass ([11]; Postemergence, 62 g ai/ha): 100 | Plant response rating, Mallow ([12]; 8 g ai/ha): 0 | Plant response rating, Mallow ([12]; 16 g ai/ha): 0 | Plant response rating, Mallow ([12]; 31 g ai/ha): 0 | Plant response rating, Mallow ([12]; 62 g ai/ha): 0
